In patent US7632952B2, “Benzothiazoles and the use thereof as medicaments” (Aventis Pharma S.A., priority 2004, dated 2009):
Counter-ions that a name gives are not always drawn.

Tests used:
CDK4/cyclin D1 = CDK4/cyclin D1 (Homo sapiens, UniProt P11802); assay: CDK4/cyclin D1 Flashplate test in 96-well format; assay type: biochemical
Experimental: 2. CDK4/cyclin D1 Protocol:
Purification of the CDK4-HA/cyclin D1-(His)6 Complex by IMAC (Immobilized Metal Affinity Chromatography):
Two recombinant baculoviruses bearing the human sequences coding, respectively, for CDK4-HA (C-terminal fusion with the hemaglutinin tag) and for cyclin D1-(His)6 are used to coinfect insect Sf9 cells. Sixty hours after the start of the coinfection, the cells are harvested by centrifugation and then frozen at −20° C. until the time of use.
CDK4/cyclin D1 Flashplate Test in 96-Well Format
A test in 96-well “Flashplate” plates coated with streptavidin is used to evaluate the inhibition of the CDK4/cyclin D1 kinase complex by the products of the invention. To perform this test, the biotinylated peptide substrate, a fragment of the pRb protein (biotinyl-[…]-amide) is dissolved at a concentration of 2 mM in kinase buffer (HEPES/NaOH 50 mM, NaCl 1 mM, MgCl2 5 mM, pH 7.5) in order to constitute a stock solution stored at −20° C. in the form of 110 μl aliquots. On the day of the experiment, an aliquot of this solution is thawed and diluted in kinase buffer containing 1 mM of dithiothreitol, and added to the buffer extemporaneously, in order to obtain a final peptide concentration of 2.571 μM. 70 μl of this solution are added to each well of the Flashplate in order to obtain a final substrate concentration of 1.8 μM during the enzymatic reaction, performed in a final volume of the reaction medium of 100 μl (cf. below). Intermediate dilutions of inhibitors (products of the invention) at various concentrations are prepared in DMSO from stock solutions at 10 mM in separate tubes. 1000 μM, 333.3 μM, 111.1 μM, 37.03 μM, 12.35 μM, 4.11 μM and 1.37 μM dilutions are thus prepared. 1 μl of each of these solutions (or 1 μl of DMSO for the controls) is then transferred into the wells of the test plate. Into each well are then added 19 μl of a solution of a mixture of adenosine triphosphate (ATP) and of ATPy^33P in the kinase buffer at a concentration of 5.26 μM of ATP total and 78.9 μCi/ml of ^33P. The enzymatic reaction is triggered by addition of 10 μl per well of a solution of CDK4/cyclin D1 at 250 nM in the kinase buffer containing 1 mM of dithiothreitol (or 10 μl of kinase buffer containing 1 mM of dithiothreitol for the reaction blanks).
(§1) After addition of all the reagents, the test plate is incubated at 30° C. with orbital stirring at 650 rpm. After the incubation, the plate is washed three times with 300 μl per well of PBS (phosphate-buffered saline, pH=7.4, without calcium or magnesium, reference 10010-015, Gibco BRL). The incorporation of ^33P into the substrate peptide is quantified by scintillation counting using a Packard Topcount.NXT machine. The inhibitory activity of the products of the invention is evaluated by measuring the inhibitory concentration that allows a 50% reduction in the enzymatic activity (IC50).

CDK2/cyclin E = CDK2/cyclin E (Homo sapiens, UniProt P24941); assay: CDK2/cyclin E Flashplate test in 96-well format; assay type: biochemical; settings: read-out: CDK2 IC50
Experimental: 1. Protocol CDK2/cyclin E:
Purification of the CDK2/cyclin E-(His)6 Complex by IMAC (Immobilized Metal Affinity Chromatography):
Two recombinant baculoviruses bearing the human sequences coding, respectively, for CDK2 and cyclin E (the latter comprising a C-terminal hexahistidine tag) are used to coinfect insect Sf21 cells. Two to three days after the start of coinfection, the cells are harvested by centrifugation and then stored at −40° C. until the time of use. After thawing and mechanical lysis of the cells, the complex present in the lysis supernatant is purified by affinity chromatography on nickel (IMAC), and stored at −80° C.
CDK2/cyclin E Flashplate Test in 96-Well Format
A format in 96-well plates coated with streptavidin is used to test the activity of the compounds on the kinase activity of CDK2/cyclin E.
To perform this test, the biotinylated peptide substrate, a fragment of the pRb protein (biotinyl-[…]-OH) is dissolved at a concentration of 1 mM in kinase buffer (HEPES/NaOH 50 mM, NaCl 1 mM, MgCl2 5 mM, pH 7.5) in order to constitute a stock solution stored at −20° C. in the form of 110 μl aliquots. On the day of the experiment, an aliquot of this solution is thawed and diluted in kinase buffer containing 1 mM of dithiothreitol, and added to the buffer extemporaneously, in order to obtain a concentration of 14.3 μM. 70 μl of this solution are added to each well of the Flashplate in order to obtain a final substrate concentration of 10 μM during the enzymatic reaction, performed in a final volume of the reaction medium of 100 μl (cf. below).
Intermediate dilutions of inhibitors (products of the invention) at various concentrations are prepared in DMSO from stock solutions at 10 mM in separate tubes. 1000 μM, 333.3 μM, 111.1 μM, 37.03 μM, 12.35 μM, 4.11 μM and 1.37 μM dilutions are thus prepared. 1 μl of each of these solutions (or 1 μl of DMSO for the controls) is transferred into the wells of the test plate.
Into each well are then added 19 μl of a solution of a mixture of adenosine triphosphate (ATP) and of ATPy^33P in the kinase buffer at a concentration of 5.26 μM of ATP total and 52.6 μCi/ml of ^33P. The enzymatic reaction is triggered by addition of 10 μl per well of a solution of CDK2/cyclin E at 200 nM in the kinase buffer containing 1 mM of dithiothreitol (or 10 μl of kinase buffer containing 1 mM of dithiothreitol for the reaction blanks).
After addition of all the reagents, the plate is incubated at 30° C. with orbital stirring at 650 rpm.
as §1, with “When” for “After addition of all”, “incubation” for “reagents, the test plate”, “complete,” for “incubated at 30° C. with orbital stirring at 650 rpm. After the incubation,”, “the” for “the substrate”

HeLa = HeLa proliferation; assay type: cell-based; settings: Homo sapiens, read-out: HeLa proliferation EC50 (nM) DG

Chain of CDK4/cyclin D1 (P11802 whole entry): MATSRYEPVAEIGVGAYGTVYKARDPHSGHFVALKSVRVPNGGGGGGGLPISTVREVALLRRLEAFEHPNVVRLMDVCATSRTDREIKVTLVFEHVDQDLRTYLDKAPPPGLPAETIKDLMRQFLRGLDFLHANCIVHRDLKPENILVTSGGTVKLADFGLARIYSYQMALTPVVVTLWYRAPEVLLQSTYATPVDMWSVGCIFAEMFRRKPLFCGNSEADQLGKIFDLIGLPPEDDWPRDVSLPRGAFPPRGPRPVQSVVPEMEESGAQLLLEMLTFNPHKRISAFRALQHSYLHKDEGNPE
Chain of CDK4/cyclin D1 (P24385 whole entry partner): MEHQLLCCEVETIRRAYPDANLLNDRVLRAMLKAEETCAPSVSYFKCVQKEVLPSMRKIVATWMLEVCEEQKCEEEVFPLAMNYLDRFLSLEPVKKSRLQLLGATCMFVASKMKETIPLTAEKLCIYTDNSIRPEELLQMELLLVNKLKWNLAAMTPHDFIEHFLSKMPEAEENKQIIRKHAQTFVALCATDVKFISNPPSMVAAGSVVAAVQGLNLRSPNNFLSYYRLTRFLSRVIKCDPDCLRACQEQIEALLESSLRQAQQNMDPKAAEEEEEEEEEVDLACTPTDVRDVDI

SMILES | IC50 (CDK4/cyclin D1) | IC50 (CDK2/cyclin E) | EC50 (HeLa)
O=C(Nc1nc2ccc(OS(=O)(=O)c3ccc(NC4CCCC4)cc3)cc2s1)C1CC1 [Example 8, 4-cyclopentylaminobenzenesulfonic 2-(cyclo-propanecarbonylamino)benzothiazol-6-yl ester] | 0.899 µM | 0.086 µM | 631 nM
CC(C)CNc1ccc(S(=O)(=O)Oc2ccc3nc(NC(=O)CCCCCCCN)sc3c2)cc1 [Example 29b, 4-Isobutylaminobenzenesulfonic acid 2-(8-aminooctanoylamino)-benzothiazol-6-yl ester hydro-chloride] | 0.368 µM | 0.161 µM | 8960 nM
CCNCCNc1ccc(S(=O)(=O)Oc2ccc3nc(NC(=O)CCC4CCNCC4)sc3c2)cc1 [Example 25b, 4-(2-Ethylaminoethyl-amino)-benzenesulfonic acid 2-(3-piperid-4-yl-propionyl-amino)-benzo-thiazol-6-yl ester hydrochloride] | 4.08 µM | 5.87 µM | 9960 nM
CC(C)N(CCNc1ccc(S(=O)(=O)Oc2ccc3nc(NC(=O)CCCCCN)sc3c2)cc1)C(C)C [Example 49, 4-(2-diisopropylaminoethylamino)benzenesulfonic acid 2-(6-aminohexanoylamino)benzothiazol-6-yl ester hydrochloride] | 0.328 µM | 0.183 µM | 2700 nM
CC(C)CNc1ccc(S(=O)(=O)Oc2ccc3nc(NC(=O)CCC4CCNCC4)sc3c2)cc1 [Example 29a, 4-Isobutylaminobenzenesulfonic acid 2-(3-piperid-4-ylpropionyl-amino)benzothiazol-6-yl ester hydrochloride] | 0.573 µM | 0.257 µM | 1830 nM
CC(C)NCCNc1ccc(S(=O)(=O)Oc2ccc3nc(NC(=O)C4CCCC4)sc3c2)cc1 [Example 69, 4-(2-isopropylaminoethylamino)benzenesulfonic acid 2-(cyclopentanecarbonylamino)benzothiazol-6-yl ester] | 0.914 µM | 0.299 µM | 1130 nM
CC(C)NCCNc1ccc(S(=O)(=O)Oc2ccc3nc(NC(=O)CCC4CCNCC4)sc3c2)cc1 [Example 24, 4-(2-Isopropylaminoethylamino)benzenesulfonic acid 2-(3-piperid-4-ylpropionylamino)benzothiazol-6-yl ester hydrochloride] | 1.67 µM | 0.864 µM | > 12500 nM
CCC(=O)Nc1nc2ccc(OS(=O)(=O)c3ccc(NCCNC(C)C)cc3)cc2s1 [Example 71, 4-(2-isopropylaminoethylamino)benzenesulfonic acid 2-propionylaminobenzothiazol-6-yl ester; compound with trifluoroacetic] | 0.424 µM | 0.175 µM | 2170 nM
CCCC(=O)Nc1nc2ccc(OS(=O)(=O)c3ccc(NCCN(C(C)C)C(C)C)cc3)cc2s1 [Example 79, 4-(2-diisopropylaminoethylamino)benzenesulfonic acid 2-butyrylaminobenzothiazol-6-yl ester hydrochloride] | 0.07 µM | 0.043 µM | 140 nM
CC(C)CNc1ccc(S(=O)(=O)Oc2ccc3nc(NC(=O)CC4CCNCC4)sc3c2)cc1 [Example 28, 4-isobutylaminobenzenesulfonic acid 2-(2-piperid-4-ylacetylamino)benzothiazol-6-yl ester hydrochloride] | 0.399 µM | 0.266 µM | 1330 nM
CC(C)NCCNc1ccc(S(=O)(=O)Oc2ccc3nc(NC(=O)C(C)C)sc3c2)cc1 [Example 75, 4-(2-isopropylaminoethylamino)benzenesulfonic acid 2-isobutyrylaminobenzothiazol-6-yl ester; compound with trifluoroacetic acid] | 0.874 µM | 0.445 µM | 195 nM
CC(C)N(CCNc1ccc(S(=O)(=O)Oc2ccc3nc(NC(=O)CCCCCCCN)sc3c2)cc1)C(C)C [Example 40, 4-(2-diisopropylaminoethylamino)benzenesulfonic acid 2-(8-aminooctanoylamino)benzothiazol-6-yl ester] | 0.253 µM | 0.209 µM | 7550 nM
O=C(Nc1nc2ccc(OS(=O)(=O)c3ccc(F)cc3)cc2s1)C1CC1 [Example 7, 4-fluorobenzenesulfonic acid 2-(cyclopropane-carbonylamino)benzothiazol-6-yl ester] | > 10 µM | 0.123 µM | 1580 nM
COCC(=O)Nc1nc2ccc(OS(=O)(=O)c3ccc(NCCNC(C)C)cc3)cc2s1 [Example 67, 4-(2-isopropylaminoethylamino)benzenesulfonic acid 2-(2-methoxyacetylamino)benzothiazol-6-yl ester] | 1.22 µM | 0.294 µM | > 12500 nM
CCCC(=O)Nc1nc2ccc(OS(=O)(=O)c3ccc(NCC(C)(C)O)cc3)cc2s1 [Example 80, 4-(2-hydroxy-2-methylpropylamino)benzene-sulfonic acid 2-butyrylaminobenzothiazol-6-yl ester hydrochloride] | 0.674 µM | 0.057 µM | 408 nM
CC(C)N(CCNc1ccc(S(=O)(=O)Oc2ccc3nc(NC(=O)CCc4cccnc4)sc3c2)cc1)C(C)C [Example 62, 4-(2-diisopropylaminoethylamino)benzenesulfonic acid 2-(3-pyrid-3-ylpropionylamino)benzothiazol-6-yl ester hydrochloride] | 0.236 µM | 0.075 µM | 296 nM
CCCC(=O)Nc1nc2ccc(OS(=O)(=O)c3ccc(NCCNC(C)C)cc3)cc2s1 [Example 73, 4-(2-isopropylaminoethylamino)benzenesulfonic acid 2-butyrylaminobenzothiazol-6-yl ester; compound with trifluoroacetic acid] | 0.246 µM | 0.185 µM | 249 nM
